Measured values: patent US20260248879A1, “METHODS OF USING A GCG/GLP1 CO-AGONIST FOR THERAPY” (ELI LILLY AND COMPANY, priority 2022, published 2026)
Marks after values point to notes of the source that are not given here.

Legend:
Format in all cases: in vivo, human
[1] = test system: patients with T2DM; assay: Example 1 study: HbA1c
From the text: This study is a Phase 1, single-site, patient- and investigator-blinded, placebo controlled, randomized, non-crossover, multiple-ascending dose study with titration in each cohort in patients with T2DM to investigate the safety, tolerability, PK, and PD of the GLP-1/glucagon co-agonist peptide of SEQ ID NO:1 (Compound 1) administered as multiple SC injections QW for 12 weeks in Cohort 1 and 16 weeks in Cohort 2.
The first dosing regimen (also referred to as Cohort 1) is 12 weeks in duration and requires dose increments of 1.5 mg starting from 1.5 mg: • 1.5 mg QW Compound 1 for 4 weeks; • 3.0 mg QW Compound 1 for 4 weeks; and • 4.5 mg QW Compound 1 for 4 weeks.
The second dosing regimen (also referred to as Cohort 2) is 16 weeks in duration and requires dose increments of 2 mg starting from 2 mg: • 2 mg QW Compound 1 for 3 weeks; • 4 mg QW Compound 1 for 3 weeks; • 6 mg QW Compound 1 for 3 weeks; • 8 mg QW Compound 1 for 3 weeks; and • 10 mg QW Compound 1 for 4 weeks.
In respect of Cohort 1, HbA1c levels are determined at baseline and Days 1, 29, 57 and 78. In respect of Cohort 2, HbA1c is measured at baseline and Days 1, 22, 43, 64, 85 and 106.

[2] = test system: patients with T2DM; assay: Example 1 study: appetite analysis (VAS)
From the text: To explore the effects of Compound 1 on meal intake and appetite sensation, subjects are asked to rate their appetite sensations using a 100-mm visual analogue scale
(VAS) for parameters of hunger, fullness, satiety, and prospective food consumption in the fasted state while inpatient as well as on scheduled outpatient visits. The VAS is a validated tool to assess appetite sensation parameters (Flint et al., Int J Obes Relat Metab Disord., 2000; 24(1):38-48). The VAS is presented as a 10-cm (100-mm) line, anchored by verbal descriptors, usually “extremely” and “not at all.” Subjects are required to rate their subjective sensations on four 100-mm scales combined with questions similar to the following: • “How hungry do you feel?” • “How satisfied do you feel?” • “How full do you feel?” • “How much do you think you could eat?”
Overall appetite score is calculated as the average of the 4 individual scores: satiety plus fullness plus (100−prospective food consumption) plus (100−hunger)/4 (van Can et al., Int J Obes (Lond). 2014; 38(6):784-793). The higher overall appetite score indicates less appetite, and the lower score indicates more appetite.
In respect of […], the satiety VAS (after fasting) is completed at baseline and Days 1, 29, 57, 78 and 80.
In respect of […], the satiety VAS (after fasting) is completed at baseline and Days 1, 22, 43, 64, 85, 106 and 108.
When the satiety VAS assessment coincides with the MMTT, it is performed pre-meal and 1 hour and 4 hours post MMTT.

[3] = test system: individuals with obesity; assay: Example 2 multiple ascending dose study in obesity: body weight, waist circumference
From the text: This study is designed to evaluate the safety, tolerability, PD and PK of dose to higher doses of Compound 1 in individuals with obesity. The Multiple Ascending Dose (MAD) study is a randomized, investigator- and participant-blind, placebo-controlled, multiple-ascending dose, single- or multi-site study conducted in individuals with obesity (i.e., females or males aged 18-70 years, inclusive, a BMI in the range of 27 kg/m^2 to 50 kg/m^2). Participants should have stable body weight for at least 3 months prior to the initiation of the study. Dose of Compound 1 is assessed with weekly dosing over 20 weeks in 2 cohorts. Each cohort comprises 12 patients-nine patients are administered Compound 1 and three patients are administered placebo. The dose for Cohort 1 is as follows: • 1.5 mg Compound 1 for 2 weeks; • 3.0 mg Compound 1 for 2 weeks; • 6.0 mg Compound 1 for 4 weeks; • 8.0 mg Compound 1 for 4 weeks; • 12.0 mg Compound 1 for 4 weeks; and • 16.0 mg Compound 1 for 4 weeks. The dose for Cohort 2 is as follows: • 2.0 mg Compound 1 for 3 weeks; • 4.0 mg Compound 1 for 3 weeks; • 6.0 mg Compound 1 for 3 weeks; • 8.0 mg Compound 1 for 3 weeks; • 10.0 mg Compound 1 for 2 weeks; • 13.0 mg Compound 1 for 2 weeks, and • 16.0 mg Compound 1 for 4 weeks. Body weight and waist circumference are measured at frequent intervals across dose from Day 1 through Day 138 and for an extended follow-up period after the conclusion of dosing. Mean absolute and percent change in body weight are calculated for Compound 1 and for placebo arms within each cohort and compared to baseline at multiple time points from Day 1 through Day 138 and throughout the extended follow-up period after the conclusion of dosing. Mean absolute and percent change in waist circumference are calculated for Compound 1 and for placebo arms within each cohort and compared to baseline at multiple time points from Day 1 through Day 138 and throughout the extended follow-up period after the conclusion of dosing. While the weight loss described in Example 1 is in a T2D patient population, greater weight loss is typical in an obesity patient population. A multiplier of 1.6-1.8 may be applied to percent weight loss moving from the T2D population to an obesity population.

[4] = both treatment groups, over dosing periods

CC(C)C[C@H](NC(=O)[C@H](CC(C)C)NC(=O)[C@H](Cc1c[nH]c2ccccc12)NC(=O)[C@H](CCC(=O)O)NC(=O)[C@@H](NC(=O)[C@H](Cc1ccccc1)NC(=O)[C@H](CCC(=O)O)NC(=O)[C@H](CCCCNC(=O)COCCOCCNC(=O)COCCOCCNC(=O)CC[C@H](NC(=O)CCCCCCCCCCCCCCCCCCC(=O)O)C(=O)O)NC(=O)[C@H](C)NC(=O)[C@H](CCCCN)NC(=O)[C@H](CCCCN)NC(=O)[C@H](CCC(=O)O)NC(=O)[C@H](CC(=O)O)NC(=O)[C@H](CC(C)C)NC(=O)[C@H](Cc1ccc(O)cc1)NC(=O)[C@H](CCCCN)NC(=O)[C@H](CO)NC(=O)[C@H](Cc1ccc(O)cc1)NC(=O)[C@H](CC(=O)O)NC(=O)[C@H](CO)NC(=O)[C@@H](NC(=O)[C@H](Cc1ccccc1)NC(=O)[C@@H](NC(=O)CNC(=O)[C@H](CCC(N)=O)NC(=O)C(C)(C)NC(=O)[C@@H](N)Cc1c[nH]cn1)[C@@H](C)O)[C@@H](C)O)C(C)C)C(=O)N[C@@H](CCC(=O)O)C(=O)NCC(=O)NCC(=O)N1CCC[C@H]1C(=O)N[C@@H](CO)C(=O)N[C@@H](CO)C(=O)NCC(N)=O [Compound 1]
Change from Baseline in HbA1c ([1]; Cohort 1 (1.5-4.5 mg QW), Day 29, baseline 8.52): −0.70* % | Change from Baseline in HbA1c ([1]; Cohort 1, Day 57, baseline 8.52): −1.45* % | Change from Baseline in HbA1c ([1]; Cohort 1, Day 78, baseline 8.52): −1.80* % | Change from Baseline in HbA1c ([1]; Cohort 1, Day 106 (28 days after last dose), baseline 8.52): −2.03* % | HbA1c decrease from baseline compared to placebo ([1]; Cohort 1 and Cohort 2, Day 57 until Day 134): Statistically significant decreases | Change from Baseline in HbA1c ([1]; Cohort 2 (2-10 mg QW), Day 43, baseline 8.08): −0.83* % | Change from Baseline in HbA1c ([1]; Cohort 2, Day 64, baseline 8.08): −1.35* % | Change from Baseline in HbA1c ([1]; Cohort 2, Day 85, baseline 8.08): −1.50* % | Change from Baseline in HbA1c ([1]; Cohort 2, Day 106, baseline 8.08): −1.67* % | overall appetite scores ([2]; all treatment groups incl. placebo, 12-week or 16-week dosing, higher score = less appetite): generally increase from baseline | hunger scores ([2]; both treatment groups, majority of time points): decrease from baseline | fullness scores [2, 4]: increased from baseline | satiety scores [2, 4]: decrease from baseline | VAS appetite assessments ([2]; higher dose cohort (FIG. 8)): reduced hunger, increased satiety, decreased overall appetite | mean waist circumference change ([3]; Ex. 2 Cohort 1, Day 85/12 weeks (after 4 weeks of 8 mg), placebo +0.04%): −5.2% | mean percent change from baseline in body weight ([3]; Ex. 2 Cohort 1, Day 113/16 weeks, after 4 weeks of 12 mg, placebo +0.7%): −15.4% | mean waist circumference change ([3]; Ex. 2 Cohort 1, Day 113/16 weeks, after 4 weeks of 12 mg, placebo +1.3%): −6.3% | mean waist circumference change ([3]; Ex. 2 Cohort 1, Day 138/20 weeks, after 4 weeks of 16 mg, placebo +0.4%): −11.5% | mean waist circumference change ([3]; Ex. 2 Cohort 2, Day 85/12 weeks (after 8 mg), placebo +0.04%): −7.6% | mean percent change from baseline in body weight ([3]; Ex. 2 Cohort 2, Day 85/12 weeks (after 8 mg), placebo +0.2%): −11.7% | mean percent change from baseline in body weight ([3]; Ex. 2 Cohort 2, Day 99/14 weeks, after 2 weeks of 10 mg, placebo +0.07%): −13.4% | mean waist circumference change ([3]; Ex. 2 Cohort 2, Day 99/14 weeks, after 2 weeks of 10 mg, placebo +1.0%): −6.8% | mean percent change from baseline in body weight ([3]; Ex. 2 Cohort 2, Day 113/16 weeks, after 2 weeks of 13 mg, placebo +0.7%): −16.2% | mean waist circumference change ([3]; Ex. 2 Cohort 2, Day 113/16 weeks, after 2 weeks of 13 mg, placebo +1.3%): −12.6% | mean waist circumference change ([3]; Ex. 2 Cohort 2, Day 138/20 weeks, after 4 weeks of 16 mg, placebo +0.4%): −16.6%
